The values that follow come from patent US9642825B2, “Bio-available N-acetyl creatine species and compositions thereof” (4141 HOLDINGS, LLC, priority 2014, dated 2017).

Data set [1] relates to muscle strength and weightlifting performance. Particulars: cited from earlier work.
Data set [2] deals with person with myasthenia gravis. Particulars: five grams daily, resistance training 3 times per week for 15 weeks; cited from earlier work.
A further data set has as its system myostatin. The note with it: cited from earlier work.
Data set [3] in a line: Dissolution time of 1 gram in distilled water at room temperature. Format: physicochemical. The note with it: 75 RPM.
The next data set is described as follows: Solubility in water. Format: physicochemical.
A short description of data set [4]: Dissolution time of 1 gram in 0.1N HCl (pH 1.2). The data set is classed as physicochemical. The note with it: 1.000 Gram in 900 ml 0.1N HCl in Water, pH = 1.2, 73 C., 75 RPM.
Data set [5] can be described thus: Chemical stability in aqueous media (conversion to creatinine). Format: physicochemical. The method, then: As may be seen, 1 gram of N-acetyl creatine dissolves faster than other creatine derivatives, except creatine ethyl ester HCl, designated Creatine EE Hcl—(High Creatine Conversion) in FIG. 1. However, this shorter dissolution time may be deceiving. […] Instead, Creatine ethyl ester HCl decomposes into creatinine in a matter of 2 to 3 minutes. Creatinine is an excretory byproduct produced from the breakdown of creatine phosphate and offers none of the numerous benefits of creatine. In other words, Creatine ethyl ester HCl is unstable and its rapid conversion to creatinine makes it ineffective in delivering bioavailable creatine to the body.

In a further data set the test system is human fibroblasts. Particulars: cited from earlier work.
[6] abbreviates: creatine supplementation plus resistance training.
The mark [7] stands for this setting: versus placebo ingestion during resistance training.
Setting [8] is: 1.000 Gram in 900 ml Distilled Water, creatine types.
[9] abbreviates: 1.000 g in 900 ml Distilled Water, L-leucine versus N-acetyl L-leucine.

As for `CN(CC(=O)O)C(=N)N` [creatine, 2-(carbamimidoyl-methyl-amino) acetic acid], in data set [1] (setting [6]), the “average increase in muscle strength” value is reported as 20% and the “average increase in weightlifting performance (maximal repetitions at a given percent of maximal strength)” value is 26%. For the same molecule, in data set [1] (setting [7]), the “average increase in muscle strength, greater than following placebo” value is 8% and the “average increase in weightlifting performance, greater than following placebo” value is 14%. In data set [2], the improved peak strength entry is “up to 37%”, the “increase in body weight” value was 7% and the “increase in fat free mass” value is on record as 4%. Further, in the data set with myostatin, the “myostatin blocked in muscle” value is on record as 60%.
On to `CN(CC(=O)O)C(=N)N.O=[N+]([O-])O` [Creatine Nitrate], for which the “Time (Minutes) to dissolve” value in data set [3] (setting [8]) turned out to be 9.12 min.
On the same count and under the same terms, the result for `CN(CC(=O)O)C(=N)N.O` [Creatine Monohydrate] reads 14.42 min.
Take `CC(=O)N[C@@H](CC(C)C)C(=O)O` [N-Acetyl Leucine, N-acetyl L-leucine]: the “Time (Minutes) to dissolve” value in data set [3] (setting [9]) amounted to 120.17 min. For the same molecule, the “solubility in an aqueous medium (in words)” value in “Solubility in water” (aqueous medium) was “extremely poor solubility”.
Turning to `CC(C)C[C@H](N)C(=O)O` [Leucine, L-leucine], in data set [3] (setting [9]), the “Time (Minutes) to dissolve” value was 12.82 min. In the data set “Solubility in water” (aqueous medium), the “solubility in an aqueous medium (in words)” value is on record as “very low water solubility” and the “solubility of free leucine relative to N-acetyl-Leucine” value is “ten times greater”.
On to Creatine Taurinate, for which the “Time (Minutes) to dissolve” value in data set [4] worked out at 10.30 min; in data set [3] (setting [8]) it was 15.85 min.
The matching figures for `CC(C)C[C@H](NC(=O)CN(C)C(=N)N)C(=O)O` [Creatyl-L-Leucine]: 3.08 min and 9.05 min.
Turning to `CN(CC(=O)O)C(=N)N.O=C(O)CC(O)(CC(=O)O)C(=O)O` [Creatine Citrate], the “Time (Minutes) to dissolve” value in data set [3] (setting [8]) was 10.10 min.
As for `CC(=O)NC(=N)N(C)CC(=O)O` [N-acetyl creatine], the “Time (Minutes) to dissolve” value in data set [4] came out at 2.17 min; in data set [3] (setting [8]), 3.70 min. The “times more soluble than the parent compound creatine” value in the data set “Solubility in water” is reported as 30 times. The “increase of solubility with respect to creatine monohydrate” value in the data set “Solubility in water” (water) was determined as 30 fold. Further, the solubility in water in the data set “Solubility in water” (water) is listed as 400 grams/1 liter. Also, the “stability in solution (in words)” value in data set [5] was “remains stable in solution”.
Turning to `CCCCCCCCCCCCOC(=O)CN(C)C(=N)N` [dodecyl creatine ester], the “increase compared with the endogenous creatine content” value in the data set on human fibroblasts was 20 fold.
In the case of `CN(CC(=O)N[C@@H](CCC(N)=O)C(=O)O)C(=N)N` [Creatyl-L-Glutamine], the “Time (Minutes) to dissolve” value in data set [4] came out at 6.33 min; in data set [3] (setting [8]) it was 25.02 min.
As to `CCOC(=O)CN(C)C(=N)N.Cl` [Creatine ethyl ester HCl], the “Time (Minutes) to dissolve” value is 0.95 min in data set [4] and 1.68 min in data set [3] (setting [8]). For the same molecule, the “stability in solution (in words)” value in data set [5] is reported as “unstable”.
